Measured values: US20040074447A1, “Methods of reducing incidence of stillborn pigs by using progesterone receptor antagonists” (priority 2002, published 2004)
Values joined by “and” are separate entries in the source; they are usually repeats but may differ in a detail not shown here. Equal entries are not always repeated. Where two headings read alike, the source gives them in different places. Marks after values point to notes of the source that are not given here.

Assays:
[1] = tested on: pregnant crossbred female swine; assay: Example 2: induction of farrowing in pregnant gilts, oral CP161,258 (two doses or single dose) or intramuscular porcine relaxin; format: in vivo; settings: for Hr, Dose d 112 To 1st pig ± SD / Hr, Dose d 113 To 1st pig ± SD: mean ± SD; for Piglet data: Born alive / Piglet data: Mummies / Piglet data: Stillborn: mean
Protocol: Animals. […] This BW was used to calculate the amount of test article to administer (T2 and T3).
Randomization of animals. Animals were ranked according to expected farrowing date and then randomly assigned to treatment within blocks of 4 animals each.
Test article administration. […] For treatment groups T2 and T3, test article was diluted (a suspension) to a concentration of 25 mg/ml in 50% propylene glycol and stored refrigerated (2-8° C.).
For treatment groups T2 and T3, animals were snared and test article was administered orally using a 60 ml syringe. […] One container of approximately 440 ml was mixed and used within each week of the 3 wk study. Each animal assigned to T2 or T3 also received approximately 30 ml of tap water to insure that test article was swallowed.
Porcine relaxin was diluted to a concentration of 1200 U/ml in sterile physiological saline on the first day of use. Diluted porcine relaxin was stored in a locked refrigerator and removed only when injections took place. Relaxin (1 ml-T4) was administered intramuscularly in the lower part of the ham of either leg with an 18-gauge, 1.5″ long needle attached to a 3 ml syringe.
Administration of test articles occurred between 7:30 am and 8:30 am on almost all days of the study.
Piglets. Response variables measured in this study were: hours from the 1st treatment to the birth of the 1st pig, number of piglets that were alive at birth (born alive), stillborn (normal appearance term piglet, but dead at time of birth), and mummies (smaller than littermates, decayed at birth). Animals were not processed (no iron shots, no clipping of needle teeth, no individual identification), but umbilical cords were clipped to […]. length if animals could not be euthanized within 2 days after birth.
Data/Analyses. […] Data were analyzed using a mixed model analysis with block as a random effect and treatment as a fixed effect (proc mixed, SAS).

[2] = tested on: pregnant crossbred female swine; format: in vivo
Source text: The objectives of this study were to determine the effects of administration of the progesterone receptor antagonist CP161,258 on the concentration of progesterone, the time interval from the 1st administration of test article on day 112 to birth of the 1st pig, the time interval from the 2nd administration of test article to birth of the 1st pig, and the status of piglets at birth (alive, stillborn, mummies).
Animals. Twenty pregnant crossbred female swine were purchased and delivered to Terre Haute on approximately day 102-107 of gestation. These animals were placed in farrowing crates in building 608W. Animals assigned to T2 averaged 195 kg BW. Animals (sows and piglets) were euthanized within 48 hr post-farrowing or on day 116 post-mating. There was no estimate of pre-weaning mortality in this study.
Randomization of animals. Animals were ranked according to expected farrowing date and randomly assigned to treatment within blocks of 2 animals each.
Test article administration. […] For treatment group T2, test article was diluted to a concentration of 25 mg/ml in 50% propylene glycol and water, and stored refrigerated (2-8° C.). Test article was administered orally after the morning blood sample was collected. The volume administered was approximately 30 ml to deliver a dosage of 4 mg/kg BW. Animals were administered with approximately 30 ml of water following administration of test article.
Early/late farrowing. […] If animals farrowed before day 114, the final blood sample was collected after farrowing was complete.
(§1) Data/Analyses. Response variables measured in this study were: hours from the time of the 1st dosing on day 112 post-breeding to birth of the 1st pig, hours from the 2nd dosing on day 113 to birth of the 1st pig, number of piglets that were alive at birth (born alive), stillborn (normal appearance term piglet, but dead at time of birth), and mummies (smaller than littermates, decayed at birth). The variables were analyzed using a mixed model analysis (proc mixed, SAS) with block as a random effect and treatment as a fixed effect. Concentrations of progesterone were analyzed using a repeated measure mixed model analysis, with block as a random effect and treatment as a fixed effect.

swine = settings: cited from earlier work
progesterone in plasma = assay: Example 1: progesterone in plasma by RIA around farrowing; format: in vivo, swine; settings: for Mean concentration of progesterone in plasma: n in parentheses; for p4 = concentration of progesterone in plasma: trt 2, individual animals
Protocol: Blood samples. Blood samples were collected from all animals (including T1 and T2) prior to administration of test article at 7:30 am on days 112 and 113. In addition, a PM blood sample was collected beginning at approximately 1:30 pm on days 112 and 113. Additional blood samples were collected at 7:30 am and 1:30 pm on subsequent days (>or =day 114). The final blood sample was collected after farrowing was complete. All blood samples (7 ml) were collected using sodium heparin vacutainers. Samples were refrigerated, centrifuged, and plasma was separated within 2 hr after collection. One aliquot of each sample was sent to Cornell Veterinary Diagnostic Lab for progesterone analyses by RIA.
as §1

sheep = settings: 5 or 10 mg/kg BW; cited from earlier work
[3] = T2: 4 mg/kg BW CP161,258 oral D 112 + 113, counted from (day 112)
[4] = T2: 4 mg/kg BW oral D 112 + 113
[5] = T3: 8 mg/kg BW CP161,258 oral D 113, counted from (day 113)
[6] = Treatment 2: 4 mg/kg oral days 112 and 113, individual animals, 4 mg/kg
[7] = Treatment 3: 8 mg/kg oral day 113, individual animals, 8 mg/kg
[8] = 4 mg/kg BW orally days 112 and 113
[9] = T2: 4 mg/kg BW CP161,258 orally D 112 + 113, mean ± SD, n in parentheses
[10] = T2: 4 mg/kg BW orally D 112 + 113, mean per litter

CC#CC1(O)CCC2C3CCC4=CC(=O)CCC4=C3C(c3ccc(N(C)C)cc3)CC21C (centres unmarked) [CP161,258, 11-(4-Dimethylamino-phenyl)-17-hydroxy-13-methyl-17-prop-1-ynyl-1,2,6,7,8,11,12,13,14,15,16,17-dodecahydro-cyclopenta[a]phenanthren-3-one]
Hr, Dose d 112 To 1st pig ± SD [1, 3]: 45 ± 26^a (13) Hr | Hr, Dose d 113 To 1st pig ± SD [1, 3]: 45 ± 26^b (13) Hr | Piglet data: Born alive [1, 4]: 9.2 (13) | Piglet data: Mummies [1, 4]: 0.4* (13) | Piglet data: Stillborn [1, 4]: 0.7 (13) | number of stillborns lower compared with T1 non-medicated controls ([1]; T2: 4 mg/kg days 112 and 113, numerically, not statistically): 0.4 pigs/litter | percent of animals that started farrowing on day 114 ([1]; T2: 4 mg/kg on days 112 and 113 (4/13)): 31% | percent of animals that started farrowing on day 113 ([1]; T2: 4 mg/kg on days 112 and 113 (7/13)): Fifty-four | Reason (animals with incomplete data) ([1]; T2 CP161,258 D 112 + 113, individual animals): Dystocia | Hr, Dose d 112 To 1st pig ± SD [1, 5]: 33 ± 20 (13) Hr | Hr, Dose d 113 To 1st pig ± SD [1, 5]: 33 ± 20^c (13) Hr | percent of animals that started farrowing on day 114 ([1]; T3: 8 mg/kg BW on day 113 (11/13)): 85% | Piglet data: Born alive ([1]; T3: 8 mg/kg BW oral D 113): 8.6 (13) | Piglet data: Mummies ([1]; T3: 8 mg/kg BW oral D 113): 0.2 (13) | Piglet data: Stillborn ([1]; T3: 8 mg/kg BW oral D 113): 0.5 (13) | number of stillborns reduced compared with T1 non-medicated controls ([1]; T3: single dose 8 mg/kg BW day 113, numerically, not statistically): 0.6 pigs/litter | Born Alive [1, 6]: 8 and 13 (2×) and 10 (3×) and 9 (2×) and 7 and 2 and 12 and 6 and 11 | Hr, 1st treatment to 1st pig [1, 6]: 22.5 h and 24.5 h and 26.4 h and 28.6 h and 28.9 h and 32.1 h and 33.6 h and 45.7 h and 46 h and 46.3 h and 49.1 h and 96.3 h and 101 h | Mummies [1, 6]: 0 (9×) and 2 and 1 (3×) | Still-born [1, 6]: 1 (9×) and 0 (4×) | Born Alive [1, 7]: 6 (3×) and 13 and 12 and 10 (3×) and 7 and 14 and 11 and 4 and 3 | Hr, 1st treatment to 1st pig [1, 7]: 49 h and 96 h and 21.2 h and 23.7 h and 24.4 h and 24.5 h and 24.7 h and 25.1 h and 25.2 h and 25.3 h and 26.3 h and 27.1 h and 34.4 h and 93.8 h | Mummies [1, 7]: 0 (10×) and 1 (3×) | Still-born [1, 7]: 0 (8×) and 2 (2×) and 1 (3×) | percent of animals that farrowed 24 to 27 hr post-dosing ([1]; single dose of 8 mg/kg BW): 70% | percent of animals that farrowed between 21 and 35 hr after dosing ([1]; single dose of 8 mg/kg BW): 85% | time interval from the 1st administration to the onset of parturition, relative to non-medicated controls ([2]; 4 mg/kg BW days 112 and 113 of gestation): half | number of piglets born dead (stillborns), mean [2, 8]: 0.1 pigs/litter | percent of animals that farrowed the day following the first treatment (day 113, within 1 day) [2, 8]: 44% and 45% | percent of animals with onset of parturition within 2 days [2, 8]: 100% | percent of treated animals that farrowed on day 114 [2, 8]: 56% | Hr, 1st dose d 112 To 1st pig ± SD [2, 9]: 36 ± 15 (9) Hr | Hr, 2nd dose d 113 To 1st pig ± SD [2, 9]: 36 ± 15 (9) Hr | Piglet data: Born alive [2, 10]: 8.9 (9) | Piglet data: Mummies [2, 10]: 0 (9) | Piglet data: Stillborn [2, 10]: 0.1* (9) | Mummified fetuses ([2]; T2: 4 mg/kg orally days 112 and 113, individual animals): 0 | induction of parturition (swine; 4 mg/kg body weight on days 111 and 112 post-breeding): effectively induced parturition | concentrations of progesterone in plasma in the −24 hr period preceding parturition, compared to non-medicated controls (progesterone in plasma; 4 mg/kg orally days 112 and 113): remained higher | Mean concentration of progesterone in plasma (progesterone in plasma; Sample time 0 (immediately before farrowing), T2): 7.5 (9) ng/ml | Mean concentration of progesterone in plasma (progesterone in plasma; Sample time 1 (within 12 hr after farrowing was complete), T2): 1.5 (9) ng/ml | Mean concentration of progesterone in plasma (progesterone in plasma; Sample time −1 relative to farrowing, T2): 12.3* (9) ng/ml | Mean concentration of progesterone in plasma (progesterone in plasma; Sample time −2 relative to farrowing, T2): 14.0* (8) ng/ml | Mean concentration of progesterone in plasma (progesterone in plasma; Sample time −3 relative to farrowing, T2): 14.5 (5) ng/ml | Mean concentration of progesterone in plasma (progesterone in plasma; Sample time −4 relative to farrowing, T2 4 mg/kg orally days 112 and 113): 14.2 (2) ng/ml | p4 = concentration of progesterone in plasma (progesterone in plasma; time 0 (immediately before farrowing)): 5.76 ng/mL and 8.12 ng/mL and 5.62 ng/mL and 9.45 ng/mL and 13.37 ng/mL and 4.95 ng/mL and 9.41 ng/mL and 5.64 ng/mL and 7.17 ng/mL | p4 = concentration of progesterone in plasma (progesterone in plasma; time 1 (within 12 hr after farrowing was complete)): 2.05 ng/mL and 1.34 ng/mL and 0.82 ng/mL and 1.62 ng/mL and 1.95 ng/mL and 4.50 ng/mL and 1.64 ng/mL and 1.11 ng/mL and 0.79 ng/mL | p4 = concentration of progesterone in plasma (progesterone in plasma; time −1): 8.27 ng/mL and 13.76 ng/mL and 13.88 ng/mL and 15.46 ng/mL and 18.89 ng/mL and 7.63 ng/mL and 8.18 ng/mL and 10.70 ng/mL and 16.70 ng/mL | p4 = concentration of progesterone in plasma (progesterone in plasma; time −2): 12.42 ng/mL and 17.27 ng/mL and 13.89 ng/mL and 15.47 ng/mL and 13.96 ng/mL and 15.17 ng/mL and 10.92 ng/mL and 17.76 ng/mL | p4 = concentration of progesterone in plasma (progesterone in plasma; time −3): 14.93 ng/mL and 13.88 ng/mL and 15.28 ng/mL and 14.66 ng/mL and 16.68 ng/mL | p4 = concentration of progesterone in plasma (progesterone in plasma; time −4): 15.25 ng/mL and 13.49 ng/mL

C[C@]1(O)CC[C@H]2[C@@H]3CC[C@@]45O[C@]4(C)C(O)=C(C#N)C[C@]5(C)[C@H]3CC[C@@]21C [Epostane]
interval from oral administration to birth of the first pig (swine; oral, 5 or 10 mg/kg BW): about 34 hr | interval from oral administration to birth of lambs (sheep): 33 h
